Series [1] can be described thus: Stability in liver microsomes. The series is classed as in vitro ADME. Particulars: 1 µM compound, NADPH, 37 °C. How it is done: After the 1 µM compound was incubated with 0.5 mg/mL of human or mouse liver microsomes and an NADPH regeneration system at 37 °C for different times, respectively, LC-MS-MS was used to analyze the remaining amount of the compound and calculate T1/2. Table 12. Evaluation results of stability of compounds of the present disclosure in human and mouse liver microsomes

The nature of series [2]: Pharmacokinetic experiment in mice. The series is classed as in vivo, CD-1 female mice. Particulars: female, CD-1, mouse, plasma; for Vd: read-out: Vdss. How it is done:
CD-1 female mice aged 7 to 10 weeks were intravenously administered and orally administered at doses of 1 mg/kg and 10 mg/kg, respectively. The mice were fasted for at least 12 h before the administration and given food 4 h after the administration, and they were given ad libitum access to water during the experiment.
On the day of the experiment, animals in the intravenous group were given the corresponding compound by single injection via the tail vein at an administration volume of 10 mL/kg; and animals in the oral group were given the corresponding compound by single intragastric injection at an administration volume of 10 mL/kg. The animals were weighed before administration, and the administration volume was calculated according to the body weight. The sample collection time points were 0.083 h, 0.167 h, 0.5 h, 1 h, 2 h, 4 h, 8 h, and 24 h. About 200 µL of whole blood was collected through the orbital venous plexus at each time point and used to prepare plasma for concentration determination by high-performance liquid chromatography-tandem mass spectrometry (LC-MS/MS). The plasma concentrations were processed using a non-compartmental model of Winnolin pharmacokinetic software, and the pharmacokinetic parameters were calculated using a linear-log trapezoidal method. Table 13. Results of in vivo pharmacokinetic evaluation of compounds of the present disclosure

In the next series the target is T1, HDAC10 (Homo sapiens, UniProt Q969S8).
T1 sequence (Q969S8 1-669): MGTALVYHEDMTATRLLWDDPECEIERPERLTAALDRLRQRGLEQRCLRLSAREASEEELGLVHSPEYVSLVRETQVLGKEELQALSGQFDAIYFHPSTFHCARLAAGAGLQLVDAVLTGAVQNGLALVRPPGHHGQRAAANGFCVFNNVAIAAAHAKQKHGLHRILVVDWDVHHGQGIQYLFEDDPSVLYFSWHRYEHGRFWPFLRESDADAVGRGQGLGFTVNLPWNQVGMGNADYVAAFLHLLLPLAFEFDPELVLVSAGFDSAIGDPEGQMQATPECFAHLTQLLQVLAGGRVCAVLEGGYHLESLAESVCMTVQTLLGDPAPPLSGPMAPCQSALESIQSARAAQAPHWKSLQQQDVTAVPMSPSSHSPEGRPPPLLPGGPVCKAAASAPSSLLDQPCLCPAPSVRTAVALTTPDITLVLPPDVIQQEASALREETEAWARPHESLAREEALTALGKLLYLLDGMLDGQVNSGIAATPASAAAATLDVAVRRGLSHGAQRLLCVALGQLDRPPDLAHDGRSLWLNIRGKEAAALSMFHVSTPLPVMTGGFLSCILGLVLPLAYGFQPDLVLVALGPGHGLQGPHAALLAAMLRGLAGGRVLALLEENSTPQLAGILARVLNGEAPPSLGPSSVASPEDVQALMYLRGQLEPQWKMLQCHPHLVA
The series is described as follows: HDAC enzyme inhibition, fluorometric assay. Particulars: read-out: Inhibitory activity against HDAC10 (IC50). The series is classed as biochemical. How it is done: Serially diluted DMSO sample solutions were added to the reaction wells, enzymes were added to a 384-well plate, and a reaction buffer was added to the control wells. The plate was incubated at room temperature for 15 min. After the fluorogenic substrate solution was added, the reaction was started. Fluorescence intensity readings (excitation: 355 nm, emission: 460 nm) were recorded every minute for 60 min using a Paradigm detector, and the slope values were calculated. Inhibition rate (%) = (maximum value - sample value)/(maximum value - minimum value) × 100%. The IC50 values were obtained by fitting a curve using the equation: Y = Bottom + (Top - Bottom)/(1 + (IC50/X)^HillSlope), where Y represents the inhibition rate and X represents the concentration of the compound. Table 10. Inhibitory activity of compound of the present disclosure against HDAC1, HDAC2, HDAC3, and HDAC10 (IC50, nM)

For the next series, the system named is HeLa cells. The series is described as follows: Intracellular acetyl lysine / H3K 27 acetyl lysine level by ELISA. The series is classed as cell-based. The note with it: 24 h of treatment. On the procedure:
HeLa cells were seeded into a 96-well plate at 20000 cells/well. After overnight adherence culture, the serially diluted compound was added. After 24 h of treatment, intracellular levels of acetyl lysine and H3K 27 acetyl lysine were quantified by ELISA. Table 9. Effect of compound of the present disclosure on levels of acetyl lysine and H3K 27 acetyl lysine
In general terms: In an ELISA, binding on a coated surface is turned into a signal by an enzyme label.

Series [3] relates to Mouse colon cancer CT-26 cells. The series is described as follows: In vivo efficacy in CT-26 model. Also on record: species or system BALB/c mice. Particulars: small molecules 15mg/kg PO QD, PD-1 1mg/kg IV QW, BDO 2mg/kg IP QW, 21 days; for TGI(%): 6 mice per group. On the procedure: Female BALB/c mice (aged 6 weeks, 18-22 g) were provided by Vital River Laboratory Animal Technology Co., Ltd. (China) and used one week after quarantine and acclimation. All animals were kept in a room at 23±2 °C with a relative humidity of 50±5%, artificial lighting was provided from 08:00 to 20:00 every day, and the air was exchanged 13-18 times per hour. Mouse colon cancer CT-26 cells were cultured conventionally in 1640 medium containing 10% fetal bovine serum in an incubator at 37 °C with 5% CO2. After being subcultured, the cells were collected when they reached the desired amount. The BALB/c mice were subcutaneously injected with 2 × 10^5 CT-26 cells on the right side to form tumors. After the tumors grew to about 100 mm^3, the animals were randomly grouped for administration. Tumor volumes were measured with a caliper on day 3, day 7, day 10, day 14, day 17, and day 21 after the administration. […] The toxicity of the compounds was evaluated according to the body weight and state of the mice.
Table 16. In vivo efficacy of some of the compounds of the present disclosure in CT-26 model

The mark [4] stands for this setting: Human liver microsomes 0.5 mg/mL.
The mark [5] stands for this setting: Mouse liver microsomes 0.5 mg/mL.
[6] abbreviates: Injection (1 mg/kg), intravenous.

The structures appear in SMILES notation.

One may read the CLint scaled as the rate of metabolic loss divided by the concentration. Read a high CLint scaled as rapid turnover. As a reminder, the half-life is how long it takes for the measured level to halve. Lower therefore signals rapid decline. The term AUC(0-t) denotes exposure summed from dosing to a finite time, without extrapolation to infinity. Read a low AUC(0-t) as low exposure. By clearance is commonly meant a measure of how efficiently the substance is removed, as volume per time. Low values mean inefficient removal, high ones efficient removal. Usually Cmax stands for the peak of the concentration-time curve. A word on the Tmax: it is the time at which the peak concentration occurs. As a reminder, the bioavailability is the share of a dose that reaches the circulation, judged against a reference dose that is usually intravenous. A high value points to much systemic uptake. Usually IC50 stands for the concentration at which inhibition is half-maximal.

Consider `Nc1cc(F)ccc1NC(=O)c1ccc(CNC(=O)/C=C/c2cccnc2)cc1` [Chidamide, reference compound], for which, in series [1] (setting [4]), the CLint scaled at 1 µM turned out to be 20.9 mL/min/kg, the “Clliver” value came out at 10.41 mL/min/kg and the half-life at 1 µM came out at 1.38 h. Moreover, in series [1] (setting [5]), the CLint scaled at 1 µM was determined as 222 mL/min/kg, the “Clliver” value was determined as 64.04 mL/min/kg and the half-life at 1 µM came to 0.41 h. For the same compound, in series [2] (setting [6]), the AUC(0-t) amounted to 539 ng·h/mL, the clearance is 33.9 mL/min/kg, the half-life is 2.03 h and the Vd was 1.55 L/kg. For the same compound, in series [2] (Oral administration (10 mg/kg)), the exposure AUC(0-t) was 2490 ng·h/mL, the Cmax came out at 3750 ng/mL, the Tmax was determined as 0.17 h and the bioavailability was 46.1%. Also, in series [2] (Oral administration (10 mg/kg)), the half-life was 3.51 h. The IC50 on HDAC10 was found to be 318 nM. In the series with HeLa cells, the “Acetyl lysine Maximum (%)” value is 420%, the “Acetyl lysine Minimum effective concentration” value came out at 80 nM, the “H3K 27 Acetyl lysine Maximum (%)” value amounted to 380% and the “H3K 27 Acetyl lysine Minimum effective concentration” value was 80 nM. Further, in series [3], the “Change in body weight” value is reported as “+21.1%” and the “TGI(%)” value was 8.9%.
Turning to `[2H]c1cc(C(=O)Nc2ccc(F)cc2N)ccc1CNC(=O)/C=C/c1cccnc1` [Compound 5, (E)-N-(2-amino-4-fluorophenyl)-4-((3-(pyridin-3-yl)acrylamido)methyl)-3-d benzamide], in series [1] (setting [4]), the CLint scaled at 1 µM came to 7.95 mL/min/kg, the “Clliver” value is on record as 5.74 mL/min/kg and the half-life at 1 µM was 3.64 h. Also, in series [1] (setting [5]), the intrinsic clearance (CLint scaled) at 1 µM is 231 mL/min/kg, the “Clliver” value turned out to be 64.79 mL/min/kg and the half-life at 1 µM is 0.393 h. For the same compound, in series [2] (setting [6]), the AUC(0-t) worked out at 453 ng·h/mL, the clearance stood at 36.8 mL/min/kg, the half-life is 1.28 h and the Vd is 1.13 L/kg. Also, in series [2] (Oral administration (10 mg/kg)), the exposure AUC(0-t) was 2360 ng·h/mL, the Cmax was 1330 ng/mL, the Tmax was determined as 0.17 h and the bioavailability is 52%. This compound also had a half-life in series [2] (Oral administration (10 mg/kg)) of 3.13 h. Further, at HDAC10, the IC50 came to 127 nM. Besides, in the series with HeLa cells, the “Acetyl lysine Maximum (%)” value is recorded as 350%, the “Acetyl lysine Minimum effective concentration” value came to 16 nM, the “H3K 27 Acetyl lysine Maximum (%)” value is 420% and the “H3K 27 Acetyl lysine Minimum effective concentration” value turned out to be 80 nM. For the same compound, in series [3], the “Change in body weight” value is “+24.2%” and the “TGI(%)” value is 12.2%.

These data come from patent EP4631931A1, “HDAC INHIBITOR AND USE THEREOF” (Wigen Biomedicine Technology (Shanghai) Co., Ltd., priority 2022, dated 2024).
